Test results published in patent publication US9353115B2, “Immune system modulators” (JANUS BIOTHERAPEUTICS, INC., priority 2011, dated 2016).

Tests used:
human TLR9 (hTLR9) = human TLR9 (hTLR9) (Homo sapiens (Human), UniProt Q9NR96); test: TLR9 antagonist assay in HEK-Blue-hTLR9 cells (SEAP reporter, ODN 2006 agonist); format: cell-based; settings: inhibition of hTLR9 dependent SEAP production, hTLR9 agonist such as ODN 2006, 1 μM, read-out: hTLR9 antagonism IC50
Excerpt: HEK-Blue™-hTLR9 cells were obtained from InvivoGen Inc. and used to determine test compound antagonism of human TLR9 (hTLR9) driven responses. HEK-Blue™-hTLR9 cells are designed for studying the stimulation of human TLR9 by monitoring the activation of NF-kB. As described by the manufacturer, “HEK-Blue™-hTLR9 cells were obtained by co-transfection of the hTLR9 gene and an optimized secreted embryonic alkaline phosphatase (SEAP) reporter gene into HEK293 cells. The SEAP reporter gene is placed under the control of the IFN-b minimal promoter fused to five NF-kB and AP-1 binding sites. Stimulation with a TLR9 ligand activates NF-kB and AP-1 which induces the production of SEAP. Levels of SEAP can be easily determined with QUANTI-Blue™ a detection medium that turns purple/blue in the presence of alkaline phosphatase”. […]
Invivogen's QUANTI-Blue™ was prepared following the manufacturer's instructions. […] SEAP levels were determined using a spectrophotometer at 620 nm.
The concentration dependent inhibition of hTLR9 dependent SEAP production was expressed as the concentration of compound which produced half the maximal level of SEAP induced by the hTLR agonist alone. Percent activity was calculated for each observation using the formula: % activity=((observed O.D.−background O.D.)/(agonist only O.D.−background O.D.))*100. […]

TLR9 = TLR9 (Mus musculus (Mouse), UniProt Q9EQU3); test: In vivo TLR knockdown: serum IL-12 after CpG ODN 1668 TLR9 agonist injection in C57Bl/6J mice; settings: male C57Bl/6J mice; single intraperitoneal dose; CpG ODN 1668 i.p. 1 hr later; serum IL-12 ELISA 3 hours post agonist
Protocol: The Effects of Test Articles on Toll-Like Receptor (TLR) Knockdown Following a Single Intraperitoneal Dose to Male C57Bl/6 Mice.
Toll-Like Receptor (TLR) knockdown effect of test articles was evaluated in a C57Bl/6J mouse. Primary end points included a terminal blood collection for analysis of cytokine production in response to CpG-DNA TLR9 agonist injection. Male C57Bl/6J mice, at ˜8 weeks of age from Jackson Laboratories were used. Test groups were 3 mice per treatment group and the groups were administered test article in a series of descending doses within the range of 400 μg to 10 μg. Test article treatment was dosed at T=0 hr by intraperitoneal injection. Agonist (CpG ODN 1668) treatment was dosed one hour later, T=1 hr by intraperitoneal injection. Necropsy was performed 3 hours post agonist treatment, T=4 hr. Blood samples were collected into serum separator tubes, allowed to clot at room temperature for at least 20 minutes, centrifuged at ambient temperature at 3000 g for 10 minutes, and the serum was extracted. ELISA was performed to determine murine IL-12 levels following manufacture's protocol (BioLegend Inc.). Serum IL-12 levels were calculated and plotted versus administered dose of antagonist and inhibitory dose at 50% (ID50) was determined.

human TLR9 (hTLR9), sequence (Q9NR96 26-1032): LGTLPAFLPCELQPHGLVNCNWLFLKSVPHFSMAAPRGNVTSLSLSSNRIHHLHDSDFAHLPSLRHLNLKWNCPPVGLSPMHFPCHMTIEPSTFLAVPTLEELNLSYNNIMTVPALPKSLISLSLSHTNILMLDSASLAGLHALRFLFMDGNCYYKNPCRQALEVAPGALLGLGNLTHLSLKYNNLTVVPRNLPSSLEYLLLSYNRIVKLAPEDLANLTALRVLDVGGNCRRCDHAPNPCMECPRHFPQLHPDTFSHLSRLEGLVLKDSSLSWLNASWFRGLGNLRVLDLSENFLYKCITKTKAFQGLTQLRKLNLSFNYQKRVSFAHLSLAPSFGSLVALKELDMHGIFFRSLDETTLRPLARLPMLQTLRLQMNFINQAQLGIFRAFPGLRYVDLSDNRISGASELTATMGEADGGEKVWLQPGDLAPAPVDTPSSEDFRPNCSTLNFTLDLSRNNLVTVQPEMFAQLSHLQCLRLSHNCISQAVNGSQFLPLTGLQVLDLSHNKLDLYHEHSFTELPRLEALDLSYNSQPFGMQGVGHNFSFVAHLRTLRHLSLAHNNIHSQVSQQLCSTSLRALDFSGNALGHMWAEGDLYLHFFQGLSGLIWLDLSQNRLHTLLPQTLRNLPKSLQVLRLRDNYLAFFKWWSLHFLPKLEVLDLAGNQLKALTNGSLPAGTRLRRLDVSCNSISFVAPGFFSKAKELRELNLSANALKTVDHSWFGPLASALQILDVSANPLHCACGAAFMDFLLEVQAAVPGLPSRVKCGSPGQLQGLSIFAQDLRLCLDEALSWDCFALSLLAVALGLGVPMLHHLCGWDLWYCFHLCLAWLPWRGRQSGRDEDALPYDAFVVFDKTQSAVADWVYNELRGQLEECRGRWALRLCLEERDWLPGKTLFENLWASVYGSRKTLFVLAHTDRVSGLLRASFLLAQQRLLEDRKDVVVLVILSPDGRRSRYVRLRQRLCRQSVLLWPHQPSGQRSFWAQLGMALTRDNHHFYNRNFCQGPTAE
TLR9, sequence (Q9EQU3 26-1032): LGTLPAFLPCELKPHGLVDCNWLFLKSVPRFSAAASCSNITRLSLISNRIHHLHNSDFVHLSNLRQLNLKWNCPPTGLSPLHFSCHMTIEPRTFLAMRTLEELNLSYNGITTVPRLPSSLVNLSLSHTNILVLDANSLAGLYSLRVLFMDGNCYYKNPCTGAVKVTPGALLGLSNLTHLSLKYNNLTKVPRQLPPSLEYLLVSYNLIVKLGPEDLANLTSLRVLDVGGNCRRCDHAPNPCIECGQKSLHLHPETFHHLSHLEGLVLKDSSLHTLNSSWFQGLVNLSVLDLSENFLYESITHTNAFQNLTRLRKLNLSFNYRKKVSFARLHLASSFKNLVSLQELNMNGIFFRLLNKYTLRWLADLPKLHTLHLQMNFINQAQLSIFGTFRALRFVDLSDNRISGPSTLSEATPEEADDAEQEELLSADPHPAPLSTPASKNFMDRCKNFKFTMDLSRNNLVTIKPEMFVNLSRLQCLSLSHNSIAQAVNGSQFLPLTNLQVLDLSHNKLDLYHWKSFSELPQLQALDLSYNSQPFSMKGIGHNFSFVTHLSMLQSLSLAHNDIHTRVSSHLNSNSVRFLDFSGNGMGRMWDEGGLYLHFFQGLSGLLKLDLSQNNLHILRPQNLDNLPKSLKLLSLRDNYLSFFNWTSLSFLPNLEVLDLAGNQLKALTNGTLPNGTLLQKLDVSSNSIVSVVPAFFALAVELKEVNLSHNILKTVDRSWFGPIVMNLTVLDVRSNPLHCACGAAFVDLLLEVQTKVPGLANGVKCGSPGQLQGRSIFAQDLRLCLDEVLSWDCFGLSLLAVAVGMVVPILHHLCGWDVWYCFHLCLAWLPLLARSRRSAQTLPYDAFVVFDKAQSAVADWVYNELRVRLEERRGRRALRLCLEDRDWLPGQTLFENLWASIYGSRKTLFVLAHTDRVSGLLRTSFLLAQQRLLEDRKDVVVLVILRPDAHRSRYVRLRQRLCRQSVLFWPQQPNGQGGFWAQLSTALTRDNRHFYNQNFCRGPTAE

Compound	IC50 (human TLR9 (hTLR9)) [nM]	In vivo TLR antagonism ID50 (inhibitory dose at 50% of serum IL-12) (TLR9) [µg]
CN1CCN(CCn2c(O)nc3c(NCCN4CCOCC4)nc(-c4ccccc4)nc32)CC1 [Example 63]	497	
CN1CCN(CCNc2nc(-c3ccccc3)nc3c2nc(O)n3CCN2CCOCC2)CC1 [Example 57]	271	348
